Measured values taken from ChEMBL document CHEMBL1145675, “Antibacterial activity studies of flavonoids from Salvia palaestina” (1983).
≈ marks a conversion by molar mass, not a printed value.

Columns and labels:
Format in all cases: functional
Pseudomonas aeruginosa [1] = test: Antimicrobial activity against Pseudomonas aeruginosa ATCC 1539 by tube dilution method
Klebsiella pneumoniae [2] = test: Antimicrobial activity against Klebsiella pneumoniae UC57 by disc-diffusion method
Staphylococcus aureus [3] = test: Antimicrobial activity against Staphylococcus aureus ATCC 6538 by disc-diffusion method
Proteus vulgaris [4] = test: Antimicrobial activity against Proteus vulgaris ATCC 8427 by disc-diffusion method
Escherichia coli [5] = test: Antimicrobial activity against Escherichia coli ATCC 8739 by disc-diffusion method
[6] = test system: Staphylococcus epidermidis; test: Antimicrobial activity against Staphylococcus epidermidis ATCC 12228 by disc-diffusion method
Staphylococcus aureus [7] = test: Antimicrobial activity against Staphylococcus aureus ATCC 6538 by tube dilution method
Klebsiella pneumoniae [8] = test: Antimicrobial activity against Klebsiella pneumoniae UC57 by tube dilution method
Proteus vulgaris [9] = test: Antimicrobial activity against Proteus vulgaris ATCC 8427 by tube dilution method
[10] = test system: Staphylococcus epidermidis; test: Antimicrobial activity against Staphylococcus epidermidis ATCC 12228 by tube dilution method
Escherichia coli [11] = test: Antimicrobial activity against Escherichia coli ATCC 8739 by tube dilution method
Pseudomonas aeruginosa [12] = test: Antimicrobial activity against Pseudomonas aeruginosa ATCC 1539 by disc-diffusion method

Row | MIC (Pseudomonas aeruginosa [1]) | MIC (Staphylococcus aureus [7]) | MIC (Proteus vulgaris [9]) | MIC [10] | MIC (Escherichia coli [11]) | SMILES | MBC (Pseudomonas aeruginosa [1]) | inhibition zone (IZ) (Klebsiella pneumoniae [2]) | inhibition zone (IZ) (Staphylococcus aureus [3]) | inhibition zone (IZ) (Proteus vulgaris [4]) | inhibition zone (IZ) (Escherichia coli [5]) | inhibition zone (IZ) [6] | MBC (Staphylococcus aureus [7]) | MBC (Klebsiella pneumoniae [8]) | MIC (Klebsiella pneumoniae [8]) | MBC (Proteus vulgaris [9]) | MBC [10] | MBC (Escherichia coli [11]) | inhibition zone (IZ) (Pseudomonas aeruginosa [12])
1 | 125 µg/mL (≈ 365 µM) | – | – | – | – | COc1ccc(-c2cc(=O)c3cc(OC)c(OC)cc3o2)cc1OC | 250 µg/mL (≈ 730 µM) | <7 mm | <7 mm | <7 mm | <7 mm | <7 mm | – | – | – | – | – | – | –
2 | 31.2 µg/mL (≈ 99.4 µM) | 31.2 µg/mL (≈ 99.4 µM) | 31.2 µg/mL (≈ 99.4 µM) | 62.5 µg/mL (≈ 199 µM) | 45 µg/mL (≈ 143 µM) | COc1cc2oc(-c3ccc(O)cc3)cc(=O)c2c(O)c1OC [CIRSIMARITIN] | 125 µg/mL (≈ 398 µM) | – | – | – | – | – | 125 µg/mL (≈ 398 µM) | 90 µg/mL (≈ 286 µM) | 45 µg/mL (≈ 143 µM) | 125 µg/mL (≈ 398 µM) | 125 µg/mL (≈ 398 µM) | 90 µg/mL (≈ 286 µM) | –
3 | – | – | – | – | 250 µg/mL (≈ 558 µM) | O=c1cc(-c2ccc(O)c(O)c2)oc2cc(O[C@@H]3O[C@H](CO)[C@@H](O)[C@H](O)[C@H]3O)cc(O)c12 [GALUTEOLIN] | – | <7 mm | <7 mm | <7 mm | – | <7 mm | – | – | – | – | – | 500 µg/mL (≈ 1120 µM) | <7 mm

Row | SMILES | MIC (Pseudomonas aeruginosa [1]) | MIC (Staphylococcus aureus [7]) | MIC (Proteus vulgaris [9]) | MIC [10] | MIC (Escherichia coli [11]) | MBC (Pseudomonas aeruginosa [1]) | inhibition zone (IZ) (Klebsiella pneumoniae [2]) | inhibition zone (IZ) (Staphylococcus aureus [3]) | inhibition zone (IZ) (Proteus vulgaris [4]) | inhibition zone (IZ) (Escherichia coli [5]) | inhibition zone (IZ) [6] | MBC (Staphylococcus aureus [7]) | MBC (Klebsiella pneumoniae [8]) | MIC (Klebsiella pneumoniae [8]) | MBC (Proteus vulgaris [9]) | MBC [10] | MBC (Escherichia coli [11]) | inhibition zone (IZ) (Pseudomonas aeruginosa [12])
4 | O=c1cc(-c2ccc(O)c(O)c2)oc2cc(O)cc(O)c12 [LUTEOLIN] | 125 µg/mL (≈ 437 µM) | – | – | – | 125 µg/mL (≈ 437 µM) | 500 µg/mL (≈ 1750 µM) | – | <7 mm | <7 mm | – | <7 mm | – | 500 µg/mL (≈ 1750 µM) | 125 µg/mL (≈ 437 µM) | – | – | 500 µg/mL (≈ 1750 µM) | –
